{
  "source": "patent US8926603B2",
  "about": "“System and method for denaturing and fixing collagenous tissue” (Hansen Medical, Inc., priority 2004, dated 2015)",
  "assay": "denaturation accompanied by genepin treatment, study at the University of Pennsylvania (FIG. 6)",
  "settings": "versus denatured collagenous tissue without genepin treatment",
  "excerpt": "Referring to FIGS. 5A-C, a denatured collagenous tissue mass exposed to genepin (371) is depicted. […] The result is a partial recovery or recreation of the mechanical properties of collagenous tissue to the state that they were prior to denaturation. […] Referring to FIG. 6, this has been experimentally confirmed in a study at the University of Pennsylvania, as directed by the inventors of the subject invention.",
  "data": [
    {"smiles": "COC(=O)C1=CO[C@@H](O)[C@@H]2C(CO)=CC[C@H]12", "note": "[genepin]", "values": [
      {"measurement": "susceptibility to creep deformation of denatured collagenous tissue", "value": "less susceptible to creep deformation"}
    ]}
  ]
}
